Test results published in PubChem BioAssay (NCI).
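Test compounds were applied to cells in 96-well plates for 48 hours at 5 doses. At the GI50, growth is halved. The concentration for full growth arrest is given as TGI.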

How the values were obtained:
Experiment in all cases: NCI tumour cell line growth inhibition, 48 h
[1] = test system: 786-0 renal
[2] = test system: ACHN renal
[3] = test system: HOP-92 NSCLC
[4] = test system: OVCAR-3 ovarian
[5] = test system: OVCAR-4 ovarian
[6] = test system: OVCAR-5 ovarian
[7] = test system: SF-295 CNS
[8] = test system: SNB-19 CNS
[9] = test system: MCF7 breast
[10] = test system: PC-3 prostate

SMILES	TGI [1]	TGI [2]	TGI [3]	TGI [4]	TGI [5]	TGI [6]	TGI [7]	TGI [8]	TGI [9]	TGI [10]	GI50 [1]	GI50 [2]	GI50 [3]	GI50 [9]	GI50 [4]	GI50 [5]	GI50 [6]	GI50 [7]	GI50 [10]	GI50 [8]
O=C(Cc1nc2ccccc2o1)C(=O)Nc1ccc(Cl)cc1Cl	> 100 µM	> 100 µM	> 100 µM	> 100 µM	> 100 µM	> 100 µM	> 100 µM	> 100 µM	–	–	–	–	–	–	–	–	–	–	–	–
COC(=O)C1=CCC2c3[nH]c4ccccc4c3CCN2C1 (centres undefined)	> 354 µM	> 354 µM	> 354 µM	> 354 µM	–	–	> 354 µM	> 354 µM	–	–	–	–	–	–	–	–	–	–	–	–
Cc1cc(C)c(/C=N/NS(=O)(=O)c2ccccc2)c(C)c1	> 100 µM	> 100 µM	95.9 µM	> 100 µM	> 100 µM	> 100 µM	> 100 µM	–	–	–	–	–	–	–	–	–	–	–	–	–
N#C/C(=C\c1ccc[nH]1)C(=O)c1ccccc1	> 100 µM	> 100 µM	> 100 µM	> 100 µM	> 100 µM	> 100 µM	> 100 µM	> 100 µM	–	–	–	–	–	–	–	–	–	–	–	–
CCc1ccccc1NC(=O)C(=O)C1C(=O)N(c2ccccc2)N=C1N (centres undefined)	> 100 µM	> 100 µM	> 100 µM	> 100 µM	> 100 µM	> 100 µM	> 100 µM	> 100 µM	–	–	–	–	–	–	–	–	–	–	–	–
O=C(CCCn1ccnc1[N+](=O)[O-])NCCn1cnc([N+](=O)[O-])n1	> 100 µM	> 100 µM	> 100 µM	> 100 µM	> 100 µM	> 100 µM	> 100 µM	–	> 100 µM	> 100 µM	–	–	–	–	–	–	–	–	–	–
CCCCCCCCCCCCCCCCCC[S+](C)CC (centres undefined)	2.66 µM	2.96 µM	4.5 µM	2.33 µM	4.35 µM	4.25 µM	2.59 µM	–	4.99 µM	–	1.25 µM	1.33 µM	1.38 µM	1.86 µM	1.08 µM	1.65 µM	1.58 µM	1.2 µM	–	–
Cc1ccccc1-n1c(CCl)nc2ccc(Br)cc2c1=O	20.6 µM	83.8 µM	36 µM	27.5 µM	31.8 µM	56.3 µM	58.4 µM	77.1 µM	–	–	–	–	–	–	–	–	–	–	–	–
CN(C)CCCCNc1ccc(NCCCCN(C)C)c2c1C(=O)c1c(O)ccc(O)c1C2=O	3.14 µM	2.96 µM	–	2.97 µM	2.76 µM	3.14 µM	3.3 µM	26 µM	2.99 µM	3.64 µM	1.76 µM	1.61 µM	–	1.59 µM	1.62 µM	1.42 µM	1.66 µM	1.75 µM	1.94 µM	13.2 µM
CC1C(O)=C(O)c2ccccc2N1O (centres undefined)	> 100 µM	> 100 µM	> 100 µM	> 100 µM	> 100 µM	> 100 µM	> 100 µM	> 100 µM	–	–	–	–	–	–	–	–	–	–	–	–
Cc1cc(C)nc(NS(=O)(=O)c2ccc(NC(=O)COC(=O)c3cccc4c(=O)c5ccccc5[nH]c34)cc2)n1	58.9 µM	> 100 µM	60.3 µM	51.4 µM	> 100 µM	58.9 µM	95.5 µM	77.2 µM	–	–	–	–	–	–	–	–	–	–	–	–
CC1=CC[C@@H](C(C)(C)O)C[C@@H]1O	> 5000 µM	> 5000 µM	> 5000 µM	> 5000 µM	> 5000 µM	> 5000 µM	> 5000 µM	> 5000 µM	–	–	–	–	–	–	–	–	–	–	–	–
CC1=C(C(=O)Nc2ccc(C)cc2)C(c2cccc([N+](=O)[O-])c2)C(C(=O)Nc2ccc(C)cc2)=C(C)N1	> 100 µM	80.8 µM	–	95.5 µM	> 100 µM	> 100 µM	82.3 µM	> 100 µM	–	–	–	–	–	–	–	–	–	–	–	–
CC[As](CC)SCC1OC(OC(C)=O)C(OC(C)=O)C(OC(C)=O)C1OC(C)=O (centres undefined)	28.1 µM	31.5 µM	13.2 µM	27.6 µM	37 µM	32.4 µM	35.7 µM	33.5 µM	–	–	–	–	–	–	–	–	–	–	–	–
COC(=O)C1=CC(=O)[C@@H]2CCCC[C@H]12	> 100 µM	> 100 µM	–	> 100 µM	> 100 µM	–	–	> 100 µM	–	–	–	–	–	–	–	–	–	–	–	–
CC#CC#C/C(=C/C=CC(=O)OC)SC	> 100 µM	–	> 100 µM	–	> 100 µM	> 100 µM	> 100 µM	–	> 100 µM	> 100 µM	–	–	–	–	–	–	–	–	–	–
CCN(CC)C(=O)CC12CCCCC1=Nc1ccccc12 (centres undefined)	> 100 µM	> 100 µM	> 100 µM	> 100 µM	> 100 µM	> 100 µM	> 100 µM	–	–	–	–	–	–	–	–	–	–	–	–	–
COC(=O)C(C(=O)C(=O)Nc1ccccc1C)c1nc2ccc([N+](=O)[O-])cc2[nH]c1=O (centres undefined)	> 100 µM	> 100 µM	–	> 100 µM	> 100 µM	> 100 µM	> 100 µM	> 100 µM	–	–	–	–	–	–	–	–	–	–	–	–
O=C1OCC2=C1C(c1cccc(Cl)c1)c1cc3c(cc1N2CCO)CCC3 (centres undefined)	10.8 µM	14.6 µM	–	0.0666 µM	19.5 µM	18.2 µM	11.9 µM	17.3 µM	12.9 µM	11.8 µM	0.0485 µM	0.0846 µM	–	0.0363 µM	0.0253 µM	0.0609 µM	0.143 µM	0.0301 µM	0.0398 µM	0.0644 µM
COc1ccc2nc3ccccc3c(NCCN(CCCl)CCCl)c2c1	2.4 µM	2.53 µM	2.43 µM	1.08 µM	3.14 µM	2.49 µM	10 µM	7.66 µM	–	–	–	–	–	–	–	–	–	–	–	–
CCN(/N=C1\CC2C=CCN(C2)C(=O)Cc2c1[nH]c1ccccc21)S(=O)(=O)c1ccc(C)cc1 (centres undefined)	> 100 µM	> 100 µM	–	–	> 100 µM	–	> 100 µM	> 100 µM	–	–	–	–	–	–	–	–	–	–	–	–
CC[C@@]1(O)C(=O)OCc2c1cc1n(c2=O)Cc2c-1nc1cc(F)c(C)c3c1c2[C@@H](NC(=O)CO)CC3	0.439 µM	0.131 µM	0.355 µM	1.65 µM	> 100 µM	–	0.338 µM	2.53 µM	–	> 100 µM	< 0.01 µM	< 0.01 µM	< 0.0125 µM	–	0.0603 µM	0.206 µM	0.115 µM	< 0.01 µM	0.0985 µM	< 0.01 µM
O=C(CC1(O)C(=O)Nc2ccccc21)c1ccccc1O (centres undefined)	> 100 µM	> 100 µM	> 100 µM	> 100 µM	> 100 µM	> 100 µM	> 100 µM	> 100 µM	–	–	–	–	–	–	–	–	–	–	–	–
